According to patent US7803992B2, “Methods and compositions for expressing an herbicide-tolerant polynucleotide” (Pioneer Hi-Bred International, Inc., priority 2005, dated 2010):

Tests used:
[1] = test system: Untransformed Coker 312 cotton; assay: Greenhouse over the top herbicide spray of cotton; format: in vivo, Gossypium hirsutum; settings: glyphosate 1.5 lb ae/acre, 2 weeks after application; rimsulfuron 16 g active ingredient/hectare without glyphosate
Excerpt: Transformed cotton plants were rooted and then transferred to soil for further growth. Plants were then subjected to herbicide spray treatments in a greenhouse. […] Untransformed Coker 312 control plants were dead 2 weeks after glyphosate application. […] Plants transformed with both GAT and HRA were further subjected to an “over the top” application of the sulfonylurea herbicide rimsulfuron at a rate of 16 g active ingredient/hectare. […] In further experiments 32 g ai/ha rimsulfuron were applied to the cotton.

[2] = test system: parent elite stiff stalk inbred corn; assay: Preemergence herbicide application in greenhouse: fresh shoot weight and visual injury; format: in vivo; settings: preemergence, 200 g/ha, mean of four replications
[3] = test system: parent elite stiff stalk inbred corn; assay: Postemergence herbicide application in greenhouse: fresh shoot weight and visual injury; format: in vivo; settings: postemergence, 200 g/ha (glyphosate 3472 g ae/ha, glufosinate ammonium 1870 g/ha), mean of four replications
[4] = test system: Heterozygous GAT-HRA corn; assay: as above; format: in vivo; settings: postemergence, 200 g/ha (glyphosate 3472 g ae/ha, glufosinate ammonium 1870 g/ha), mean of four replications
[5] = test system: Heterozygous GAT-HRA corn; assay: Preemergence herbicide application in greenhouse: fresh shoot weight and visual injury; format: in vivo; settings: preemergence, 200 g/ha, mean of four replications
[6] = test system: Wild Type soybeans (Jack); assay: Postemergence herbicide treatment of soybeans in greenhouse, visual injury; format: in vivo, soybean; settings: postemergence, glyphosate 8960, tribenuron-methyl 35, rimsulfuron 35 g/ha
Description: (§1) Young regenerated transgenic plants were sprayed with 1× glyphosate (1× rate of glyphosate is 1120 g/ha of glyphosate isopropylamine) to cull segregants. Four replications were performed for each treatment. Plants were then treated with various herbicides, including glyphosate and ALS-inhibitor herbicides.
(§2) Six soybean seeds from each variety to be assayed were planted 1 cm deep in 5.5 (13.97 cm) inch square plastic container of a synthetic growth medium. […] When possible, containers were thinned to two uniform plants. Non-transgenic lines were thinned to two uniform plants per container.
(§3) Results are expressed below in Table 11 as the mean of four replications.

GAT-HRA soybeans = assay: as above; format: in vivo, soybean; settings: postemergence, glyphosate 8960, tribenuron-methyl 35, rimsulfuron 35 g/ha
Description: as §1, §2, §3

STS ® soybeans = assay: as above; format: in vivo, soybean
Excerpt: When possible, containers were thinned to two uniform plants.

[7] = Zea mays, pre-emergence, 672 h, 0% no injury, 100% plant death, read-out: % Visual Injury
[8] = Zea mays, post-emergence, 0% no injury, 100% plant death, read-out: % Visual Injury

For `CCS(=O)(=O)c1cccnc1S(=O)(=O)NC(=O)Nc1nc(OC)cc(OC)n1` [Rimsulfuron], the “damage to untransformed control plants” value [1] was “severe damage”, the pest or weed control at 200 g/ha [2, 7] was 74% and the “Fresh Weight” value ([2]; fresh shoots weighed 4 weeks after treatment, untreated 36.7 g) was 29.8 g. For the same compound, the pest or weed control at 200 g/ha [3, 8] was 91%, the “Fresh Weight” value ([3]; weighed 2 weeks after treatment, untreated 76.4 g) was 12.6 g and the pest or weed control at 200 g/ha [4, 8] was 10%. For the same compound, the “Fresh Weight” value ([4]; weighed 2 weeks after treatment, untreated 98.8 g) was 99.2 g, the pest or weed control at 200 g/ha [5, 7] was 0% and the “Fresh Weight” value ([5]; fresh shoots weighed 4 weeks after treatment, untreated 47.0 g) was 45.3 g. The “% Visual Injury” value ([6]; Wild Type line 82) was 97%, the “% Visual Injury” value ([6]; Wild Type line Jack) was 97% and the “% Visual Injury” value ([6]; Wild Type, mean) was 97%. For the same compound, the “% Visual Injury” value (GAT-HRA soybeans; event 59, mean) was 87%, the “% Visual Injury” value (GAT-HRA soybeans; event 59 line 21) was 88% and the “% Visual Injury” value (GAT-HRA soybeans; event 59 line 28) was 86%. The “% Visual Injury” value (GAT-HRA soybeans; event 60, mean) was 83%, the “% Visual Injury” value (GAT-HRA soybeans; event 60 line 07) was 84% and the “% Visual Injury” value (GAT-HRA soybeans; event 60 line 11) was 83%. The “% Visual Injury” value (GAT-HRA soybeans; event 60 line 22) was 76%, the “% Visual Injury” value (GAT-HRA soybeans; event 60 line 35) was 85% and the “% Visual Injury” value (GAT-HRA soybeans; event 60 line 41) was 80%. For the same compound, the “% Visual Injury” value (GAT-HRA soybeans; event 60 line 46) was 78%, the “% Visual Injury” value (GAT-HRA soybeans; event 60 line 70) was 80% and the “% Visual Injury” value (GAT-HRA soybeans; event 60 line 75) was 86%. The “% Visual Injury” value (GAT-HRA soybeans; event 60 line 77) was 90%, the “% Visual Injury” value (GAT-HRA soybeans; event 60 line 79) was 86% and the “% Visual Injury” value (GAT-HRA soybeans; event 60 line 82) was 90%. For the same compound, the “% Visual Injury” value (GAT-HRA soybeans; event 60 line 84) was 83%, the “% Visual Injury” value (GAT-HRA soybeans; event 61, mean) was 82% and the “% Visual Injury” value (GAT-HRA soybeans; event 61 line 02) was 80%. The “% Visual Injury” value (GAT-HRA soybeans; event 61 line 02B) was 70%, the “% Visual Injury” value (GAT-HRA soybeans; event 61 line 05) was 78% and the “% Visual Injury” value (GAT-HRA soybeans; event 61 line 14) was 90%. For the same compound, the “% Visual Injury” value (GAT-HRA soybeans; event 61 line 18) was 89%, the “% Visual Injury” value (GAT-HRA soybeans; event 61 line 24) was 90% and the “% Visual Injury” value (GAT-HRA soybeans; event 61 line 33) was 95%. For the same compound, the “% Visual Injury” value (GAT-HRA soybeans; event 61 line 34) was 90%, the “% Visual Injury” value (GAT-HRA soybeans; event 61 line 47) was 78% and the “% Visual Injury” value (GAT-HRA soybeans; event 61 line 49) was 84%. For the same compound, the “% Visual Injury” value (GAT-HRA soybeans; event 61 line 51) was 83%, the “% Visual Injury” value (GAT-HRA soybeans; event 61 line 60) was 73% and the “% Visual Injury” value (GAT-HRA soybeans; event 61 line 62) was 71%. The “% Visual Injury” value (GAT-HRA soybeans; event 61 line 99) was 79%, the “% Visual Injury” value (GAT-HRA soybeans; event 64, mean) was 73% and the “% Visual Injury” value (GAT-HRA soybeans; event 64 line 41) was 73%. For the same compound, the “% Visual Injury” value (GAT-HRA soybeans; event 64 line 47) was 73%, the “% Visual Injury” value (STS ® soybeans; STS ® line 25, glyphosate 8960, tribenuron-methyl 35, rimsulfuron 35 g/ha) was 97% and the “% Visual Injury” value (STS ® soybeans; STS ® line 46, glyphosate 8960, tribenuron-methyl 35, rimsulfuron 35 g/ha) was 97%. For the same compound, the “% Visual Injury” value (STS ® soybeans; STS ®, mean, glyphosate 8960, tribenuron-methyl 35, rimsulfuron 35 g/ha) was 97%.
